{"source": "ChEMBL document CHEMBL1136696", "about": "“Azalide 3,6-ketals: antibacterial activity and structure-activity relationships of aryl and hetero aryl substituted analogues” (Bioorg Med Chem Lett, 2003)", "type_in_all_cases": "functional", "key": {"Pasteurella multocida": {"tested_on": "Pasteurella multocida", "assay": "In vitro antibacterial activity against Pasteurella multocida 59A0067"}, "Staphylococcus aureus": {"tested_on": "Staphylococcus aureus", "assay": "In vitro antibacterial activity against Staphylococcus aureus 01A0758"}, "Escherichia coli": {"tested_on": "Escherichia coli", "assay": "In vitro antibacterial activity against Escherichia coli 51A0150"}}, "data": [{"smiles": "CC[C@H]1OC(=O)[C@H](C)[C@H]2OC3(CCN(c4nc(C)ccc4C#N)CC3)O[C@](C)(C[C@@H](C)CN[C@H](C)[C@@H](O)[C@]1(C)O)[C@H](O[C@@H]1O[C@H](C)CC(N(C)C)[C@H]1O)[C@H]2C", "note": "(stereo not given in full)", "values": [{"measurement": "MIC", "setting": "Pasteurella multocida", "value": 0.78, "unit": "µg/mL"}, {"measurement": "MIC", "setting": "Staphylococcus aureus", "value": 0.78, "unit": "µg/mL"}, {"measurement": "MIC", "setting": "Escherichia coli", "value": 6.25, "unit": "µg/mL"}]}, {"smiles": "CC[C@H]1OC(=O)[C@H](C)[C@H]2OC3(CCN(c4nc(Cl)nc(-c5ccccc5)n4)CC3)O[C@](C)(C[C@@H](C)CN(C)[C@H](C)[C@@H](O)[C@]1(C)O)[C@H](O[C@@H]1O[C@H](C)CC(N(C)C)[C@H]1O)[C@H]2C", "note": "(stereo not given in full)", "values": [{"measurement": "MIC", "setting": "Pasteurella multocida", "value": "> 50", "unit": "µg/mL"}, {"measurement": "MIC", "setting": "Staphylococcus aureus", "value": 1.56, "unit": "µg/mL"}, {"measurement": "MIC", "setting": "Escherichia coli", "value": "> 50", "unit": "µg/mL"}]}, {"smiles": "CC[C@H]1OC(=O)[C@H](C)[C@H]2OC3(CCN(c4ccc([N+](=O)[O-])cc4)CC3)O[C@](C)(C[C@@H](C)CN(C)[C@H](C)[C@@H](O)[C@]1(C)O)[C@H](O[C@@H]1O[C@H](C)CC(N(C)C)[C@H]1O)[C@H]2C", "note": "(stereo not given in full)", "values": [{"measurement": "MIC", "setting": "Pasteurella multocida", "value": 0.39, "unit": "µg/mL"}, {"measurement": "MIC", "setting": "Staphylococcus aureus", "value": 1.56, "unit": "µg/mL"}, {"measurement": "MIC", "setting": "Escherichia coli", "value": 6.25, "unit": "µg/mL"}]}, {"smiles": "CC[C@H]1OC(=O)[C@H](C)[C@H]2OC3(CCN(c4ccc(C(F)(F)F)cn4)CC3)O[C@](C)(C[C@@H](C)CN[C@H](C)[C@@H](O)[C@]1(C)O)[C@H](O[C@@H]1O[C@H](C)CC(N(C)C)[C@H]1O)[C@H]2C", "note": "(stereo not given in full)", "values": [{"measurement": "MIC", "setting": "Pasteurella multocida", "value": 0.78, "unit": "µg/mL"}, {"measurement": "MIC", "setting": "Staphylococcus aureus", "value": 1.56, "unit": "µg/mL"}, {"measurement": "MIC", "setting": "Escherichia coli", "value": 12.5, "unit": "µg/mL"}]}, {"smiles": "CC[C@H]1OC(=O)[C@H](C)[C@H]2OC3(CCN(c4ccc(C(=O)O)c(C(F)(F)F)c4)CC3)O[C@](C)(C[C@@H](C)CN(C)[C@H](C)[C@@H](O)[C@]1(C)O)[C@H](O[C@@H]1O[C@H](C)CC(N(C)C)[C@H]1O)[C@H]2C", "note": "(stereo not given in full)", "values": [{"measurement": "MIC", "setting": "Pasteurella multocida", "value": 3.13, "unit": "µg/mL"}, {"measurement": "MIC", "setting": "Staphylococcus aureus", "value": 25, "unit": "µg/mL"}, {"measurement": "MIC", "setting": "Escherichia coli", "value": 12.5, "unit": "µg/mL"}]}, {"smiles": "CC[C@H]1OC(=O)[C@H](C)[C@H]2OC3(CCN(c4ccc(C(=O)OCc5ccccc5)cc4F)CC3)O[C@](C)(C[C@@H](C)CN[C@H](C)[C@@H](O)[C@]1(C)O)[C@H](O[C@@H]1O[C@H](C)CC(N(C)C)[C@H]1O)[C@H]2C", "note": "(stereo not given in full)", "values": [{"measurement": "MIC", "setting": "Pasteurella multocida", "value": 3.13, "unit": "µg/mL"}, {"measurement": "MIC", "setting": "Staphylococcus aureus", "value": 0.39, "unit": "µg/mL"}, {"measurement": "MIC", "setting": "Escherichia coli", "value": "> 50", "unit": "µg/mL"}]}, {"smiles": "CCOC(=O)c1ccc(N2CCC3(CC2)O[C@H]2[C@H](C)[C@@H](O[C@@H]4O[C@H](C)CC(N(C)C)[C@H]4O)[C@@](C)(C[C@@H](C)CN[C@H](C)[C@@H](O)[C@](C)(O)[C@@H](CC)OC(=O)[C@@H]2C)O3)nc1", "note": "(stereo not given in full)", "values": [{"measurement": "MIC", "setting": "Pasteurella multocida", "value": 3.13, "unit": "µg/mL"}, {"measurement": "MIC", "setting": "Staphylococcus aureus", "value": 6.25, "unit": "µg/mL"}, {"measurement": "MIC", "setting": "Escherichia coli", "value": 50, "unit": "µg/mL"}]}, {"smiles": "CC[C@H]1OC(=O)[C@H](C)[C@H]2OC3(CCN(c4cncc(Cl)n4)CC3)O[C@](C)(C[C@@H](C)CN(C)[C@H](C)[C@@H](O)[C@]1(C)O)[C@H](O[C@@H]1O[C@H](C)CC(N(C)C)[C@H]1O)[C@H]2C", "note": "(stereo not given in full)", "values": [{"measurement": "MIC", "setting": "Pasteurella multocida", "value": 0.39, "unit": "µg/mL"}, {"measurement": "MIC", "setting": "Staphylococcus aureus", "value": 1.56, "unit": "µg/mL"}, {"measurement": "MIC", "setting": "Escherichia coli", "value": 6.25, "unit": "µg/mL"}]}, {"smiles": "CC[C@H]1OC(=O)[C@H](C)[C@H]2OC3(CCN(c4ccc(S(=O)(=O)c5ccc(F)cc5)cc4)CC3)O[C@](C)(C[C@@H](C)CN(C)[C@H](C)[C@@H](O)[C@]1(C)O)[C@H](O[C@@H]1O[C@H](C)CC(N(C)C)[C@H]1O)[C@H]2C", "note": "(stereo not given in full)", "values": [{"measurement": "MIC", "setting": "Pasteurella multocida", "value": 1.56, "unit": "µg/mL"}, {"measurement": "MIC", "setting": "Staphylococcus aureus", "value": 3.13, "unit": "µg/mL"}, {"measurement": "MIC", "setting": "Escherichia coli", "value": "> 50", "unit": "µg/mL"}]}, {"smiles": "CC[C@H]1OC(=O)[C@H](C)[C@H]2OC3(CCN(c4ccc(C#N)cn4)CC3)O[C@](C)(C[C@@H](C)CN[C@H](C)[C@@H](O)[C@]1(C)O)[C@H](O[C@@H]1O[C@H](C)CC(N(C)C)[C@H]1O)[C@H]2C", "note": "(stereo not given in full)", "values": [{"measurement": "MIC", "setting": "Pasteurella multocida", "value": 0.2, "unit": "µg/mL"}, {"measurement": "MIC", "setting": "Staphylococcus aureus", "value": 1.56, "unit": "µg/mL"}, {"measurement": "MIC", "setting": "Escherichia coli", "value": 6.25, "unit": "µg/mL"}]}, {"smiles": "CC[C@H]1OC(=O)[C@H](C)[C@H]2OC3(CCN(c4nc5ccccc5[nH]4)CC3)O[C@](C)(C[C@@H](C)CN(C)[C@H](C)[C@@H](O)[C@]1(C)O)[C@H](O[C@@H]1O[C@H](C)CC(N(C)C)[C@H]1O)[C@H]2C", "note": "(stereo not given in full)", "values": [{"measurement": "MIC", "setting": "Pasteurella multocida", "value": 0.1, "unit": "µg/mL"}, {"measurement": "MIC", "setting": "Staphylococcus aureus", "value": 3.13, "unit": "µg/mL"}, {"measurement": "MIC", "setting": "Escherichia coli", "value": 1.56, "unit": "µg/mL"}]}, {"smiles": "CC[C@H]1OC(=O)[C@H](C)[C@H]2OC3(CCN(c4ccc(NC(=O)c5ccccc5)cc4)CC3)O[C@](C)(C[C@@H](C)CN(C)[C@H](C)[C@@H](O)[C@]1(C)O)[C@H](O[C@@H]1O[C@H](C)CC(N(C)C)[C@H]1O)[C@H]2C", "note": "(stereo not given in full)", "values": [{"measurement": "MIC", "setting": "Pasteurella multocida", "value": 1.56, "unit": "µg/mL"}, {"measurement": "MIC", "setting": "Staphylococcus aureus", "value": 12.5, "unit": "µg/mL"}, {"measurement": "MIC", "setting": "Escherichia coli", "value": 50, "unit": "µg/mL"}]}, {"smiles": "CC[C@H]1OC(=O)[C@H](C)[C@H]2OC3(CCN(c4nc5ccccc5o4)CC3)O[C@](C)(C[C@@H](C)CN(C)[C@H](C)[C@@H](O)[C@]1(C)O)[C@H](O[C@@H]1O[C@H](C)CC(N(C)C)[C@H]1O)[C@H]2C", "note": "(stereo not given in full)", "values": [{"measurement": "MIC", "setting": "Pasteurella multocida", "value": 0.78, "unit": "µg/mL"}, {"measurement": "MIC", "setting": "Staphylococcus aureus", "value": 3.13, "unit": "µg/mL"}, {"measurement": "MIC", "setting": "Escherichia coli", "value": 6.25, "unit": "µg/mL"}]}, {"smiles": "CC[C@H]1OC(=O)[C@H](C)[C@H]2OC3(CCN(c4ccc(C(=O)OCc5ccccc5)c(C(F)(F)F)c4)CC3)O[C@](C)(C[C@@H](C)CN[C@H](C)[C@@H](O)[C@]1(C)O)[C@H](O[C@@H]1O[C@H](C)CC(N(C)C)[C@H]1O)[C@H]2C", "note": "(stereo not given in full)", "values": [{"measurement": "MIC", "setting": "Pasteurella multocida", "value": 6.25, "unit": "µg/mL"}, {"measurement": "MIC", "setting": "Staphylococcus aureus", "value": 0.78, "unit": "µg/mL"}, {"measurement": "MIC", "setting": "Escherichia coli", "value": "> 50", "unit": "µg/mL"}]}, {"smiles": "CC[C@H]1OC(=O)[C@H](C)[C@H]2OC3(CCN(c4cc(OC)nc(OC)n4)CC3)O[C@](C)(C[C@@H](C)CN(C)[C@H](C)[C@@H](O)[C@]1(C)O)[C@H](O[C@@H]1O[C@H](C)CC(N(C)C)[C@H]1O)[C@H]2C", "note": "(stereo not given in full)", "values": [{"measurement": "MIC", "setting": "Pasteurella multocida", "value": 0.39, "unit": "µg/mL"}, {"measurement": "MIC", "setting": "Staphylococcus aureus", "value": 1.56, "unit": "µg/mL"}, {"measurement": "MIC", "setting": "Escherichia coli", "value": 6.25, "unit": "µg/mL"}]}]}
